The subject of experiment [1] is Plasmodium falciparum. In words: Antiplasmodial activity against Plasmodium falciparum FCB2 assessed as inhibition of merozoite invasion of human RBCs at 1.85 mg/mL after 18 hrs using hydroethidine staining by flow cytometry. The format is functional. More on the design: scale not given: the % may be the effect or the level left.
In experiment [2] the test system is Plasmodium falciparum. In words: Antiplasmodial activity against Plasmodium falciparum FCB2 assessed as inhibition of merozoite invasion of human RBCs at 100 uM after 18 hrs using hydroethidine staining by flow cytometry. As to conditions: FCB2, 18 h. Type of experiment: functional.
The species named for experiment [3] is Homo sapiens. The experiment in a line: Binding affinity to RBC membrane receptor in 1 mg/mL trypsin pretreated human RBCs relative to untreated RBCs.
Experiment [4] concerns Plasmodium falciparum. The experiment in a line: Antiplasmodial activity against Plasmodium falciparum FCB2 assessed as inhibition of merozoite invasion of human RBCs at 200 uM after 18 hrs using hydroethidine staining by flow cytometry. Type of experiment: functional. The note with it: FCB2, 18 h.
For experiment [5], the species on record is Homo sapiens. In words: Binding affinity to RBC membrane receptor in 150 uU/mL neuraminidase pretreated human RBCs relative to untreated RBCs.
Experiment [6] is described as follows: Binding affinity to RBC membrane receptor in human RBCs assessed as dissociation constant by gamma counter.
Experiment [7] is filed under the species Homo sapiens. In words: Binding affinity to RBC membrane receptor in 1 mg/mL chymotrypsin pretreated human RBCs relative to untreated RBCs.
Experiment [8] is filed under the species Homo sapiens. The experiment in a line: Binding affinity to RBC membrane receptor in human RBCs assessed as specific binding activity measured as ratio of specifically bound peptide/added peptide by gamma counter.
For experiment [9], the species on record is Homo sapiens. In words: Binding affinity of radio labeled compound to 78 kDa RBC membrane receptor in human RBCs cross-linked with bis-(sulfosuccinimidyl)suberate by autoradiography using SDS-PAGE.
The species named for experiment [10] is Homo sapiens. The experiment in a line: Binding affinity of radio labeled compound to 85 kDa RBC membrane receptor in human RBCs cross-linked with bis-(sulfosuccinimidyl)suberate by autoradiography using SDS-PAGE.
The test system of experiment [11] is Plasmodium falciparum. In words: Antiplasmodial activity against Plasmodium falciparum FCB2 assessed as inhibition of merozoite invasion of human RBCs at 1.9 mg/mL after 18 hrs using hydroethidine staining by flow cytometry. The format is functional. More on the design: scale not given: the % may be the effect or the level left.
The species named for experiment [12] is Homo sapiens. The experiment in a line: Binding affinity of radio labeled compound to 170 kDa RBC membrane receptor in human RBCs cross-linked with bis-(sulfosuccinimidyl)suberate by autoradiography using SDS-PAGE.
Experiment [13] is filed under the species Homo sapiens. The experiment in a line: Binding affinity of radio labeled compound to 68 kDa RBC membrane receptor in human RBCs cross-linked with bis-(sulfosuccinimidyl)suberate by autoradiography using SDS-PAGE.
Experiment [14] is filed under the species Homo sapiens. In words: Binding affinity of radio labeled compound to 47 kDa RBC membrane receptor in human RBCs cross-linked with bis-(sulfosuccinimidyl)suberate by autoradiography using SDS-PAGE.

Activity calls are given as the source filed them. No cut-off for these calls is given here.

Turning to `CCN(CC)CCCC(C)Nc1ccnc2cc(Cl)ccc12` (centres undefined) [CHLOROQUINE], the Activity in the experiment with Plasmodium falciparum [1] was determined as 68%.

As to `CC(C)C[C@H](NC(=O)[C@H](CCCCN)NC(=O)[C@H](Cc1ccc(O)cc1)NC(=O)[C@H](CC(C)C)NC(=O)CNC(=O)[C@H](CC(=O)O)NC(=O)[C@H](CO)NC(=O)[C@H](CO)NC(=O)[C@H](Cc1ccc(O)cc1)NC(=O)[C@H](CCCCN)NC(=O)[C@H](CC(C)C)NC(=O)[C@H](Cc1cnc[nH]1)NC(=O)[C@H](CO)NC(=O)[C@H](CO)NC(=O)[C@@H]1CCCN1C(=O)[C@@H](NC(=O)[C@H](CCCCN)NC(=O)[C@H](CS)NC(=O)[C@@H](NC(=O)[C@@H](N)CCCCN)[C@H](C)O)C(C)C)C(=O)O`, the inhibition at 100 µM in the experiment with Plasmodium falciparum [2] was found to be 45%. Moreover, the Activity in the experiment filed under Homo sapiens [3] was 55%; in the experiment filed under Homo sapiens [5], 23%; in the experiment listed under Homo sapiens [7], 37%; in the experiment listed under Homo sapiens [8], more than 2%. In the experiment on Plasmodium falciparum [4], the inhibition at 200 µM came to 13%. For the same compound, the dissociation constant (Kd) in experiment [6] was determined as 250 nM.

For `CC[C@H](C)[C@H](NC(=O)[C@H](CCCCN)NC(=O)CNC(=O)CNC(=O)[C@H](Cc1ccc(O)cc1)NC(=O)[C@H](CC(=O)O)NC(=O)[C@H](CO)NC(=O)[C@H](CC(C)C)NC(=O)[C@@H](N)CCCNC(=N)N)C(=O)N[C@@H](CC(C)C)C(=O)N[C@H](C(=O)N[C@@H](CCCCN)C(=O)NCC(=O)N[C@H](C(=O)N[C@@H](CC(N)=O)C(=O)N[C@@H](C)C(=O)N[C@@H](CCC(N)=O)C(=O)N[C@@H](CC(N)=O)C(=O)N[C@H](C(=O)N[C@@H](CC(C)C)C(=O)O)[C@H](C)O)[C@@H](C)O)C(C)C`, in the experiment with Plasmodium falciparum [2], the inhibition at 100 µM came to 34%. Also, the Activity in the experiment listed under Homo sapiens [3] was 11%; in the experiment listed under Homo sapiens [5], 67%; in the experiment filed under Homo sapiens [7] it was 79%; in the experiment filed under Homo sapiens [8], more than 2%. Further, in the experiment with Plasmodium falciparum [4], the inhibition at 200 µM is 9%. In addition, the Kd in experiment [6] was found to be 900 nM.

With H-RLKENKDYDVVSSIIQHLDN-OH, the result in the experiment filed under Homo sapiens [9] and in the experiment filed under Homo sapiens [10] was Active. Besides, the inhibition at 100 µM in the experiment with Plasmodium falciparum [2] came out at 42%. Further, the Activity in the experiment filed under Homo sapiens [3] is 18%; in the experiment listed under Homo sapiens [5], 55%; in the experiment listed under Homo sapiens [7], 94%; in the experiment listed under Homo sapiens [8], more than 2%. Also, in the experiment with Plasmodium falciparum [4], the inhibition at 200 µM is 7%. For the same compound, the Kd in experiment [6] amounted to 730 nM.

With H-DNNKECLIDPLDVQKNLLNEY-OH, the result in the experiment listed under Homo sapiens [9] and in the experiment filed under Homo sapiens [10] was Active. The inhibition at 100 µM in the experiment with Plasmodium falciparum [2] came to 36%. Moreover, the Activity in the experiment listed under Homo sapiens [3] is 105%; in the experiment listed under Homo sapiens [5] it was 13%; in the experiment listed under Homo sapiens [7], 59%; in the experiment listed under Homo sapiens [8], more than 2%. The inhibition at 200 µM in the experiment on Plasmodium falciparum [4] was determined as 4%. In [6], the Kd stood at 800 nM.

As for H-NYRRRKRITELRKILVEKLR-OH, the result in the experiment filed under Homo sapiens [9] and in the experiment listed under Homo sapiens [10] was Active. For the same compound, the inhibition at 100 µM in the experiment on Plasmodium falciparum [2] turned out to be 47%. For the same compound, the Activity in the experiment listed under Homo sapiens [3] was 43%; in the experiment filed under Homo sapiens [5] it was 68%; in the experiment filed under Homo sapiens [7] it was 7%; in the experiment filed under Homo sapiens [8] it was more than 2%. Further, in the experiment with Plasmodium falciparum [4], the inhibition at 200 µM worked out at 15%. Further, the Kd in experiment [6] is 1700 nM.

For the compound `O=C(O)CN(CCOCCOCCN(CC(=O)O)CC(=O)O)CC(=O)O` [EGTAZIC ACID], the Activity with Plasmodium falciparum [11] worked out at 81%.

With H-YFFEYELRKKTQSFRNKNSI-OH, the outcome in the experiment listed under Homo sapiens [9] and in the experiment listed under Homo sapiens [10] was Active. Moreover, the inhibition at 100 µM in the experiment on Plasmodium falciparum [2] turned out to be 40%. The Activity was 83% in the experiment listed under Homo sapiens [3], 17% in the experiment listed under Homo sapiens [5], 31% in the experiment listed under Homo sapiens [7] and more than 2% in the experiment filed under Homo sapiens [8]. Besides, the inhibition at 200 µM in the experiment on Plasmodium falciparum [4] is 10%. In addition, in experiment [6], the Kd turned out to be 900 nM.

Consider H-ASLKETMNKIDTIEKKIEEFY-OH, for which the outcome in the experiment filed under Homo sapiens [9] and in the experiment filed under Homo sapiens [10] was Active. Besides, the inhibition at 100 µM with Plasmodium falciparum [2] is 40%. Besides, the Activity in the experiment filed under Homo sapiens [3] was 87%; in the experiment filed under Homo sapiens [5], 12%; in the experiment listed under Homo sapiens [7], 33%; in the experiment filed under Homo sapiens [8] it was more than 2%. Besides, in the experiment on Plasmodium falciparum [4], the inhibition at 200 µM was found to be 8%. In [6], the Kd was 1200 nM.

`CC[C@H](C)[C@H](NC(=O)[C@H](Cc1cnc[nH]1)NC(=O)[C@H](CC(N)=O)NC(=O)[C@H](CCCNC(=N)N)NC(=O)[C@@H](NC(=O)[C@@H](N)Cc1ccc(O)cc1)[C@@H](C)CC)C(=O)N[C@@H](CC(=O)O)C(=O)N[C@@H](CC(C)C)C(=O)N[C@@H](CC(=O)O)C(=O)N[C@@H](Cc1ccccc1)C(=O)N1CCC[C@H]1C(=O)N[C@@H](Cc1ccccc1)C(=O)N[C@@H](CC(=O)O)C(=O)N[C@H](C(=O)N[C@@H](CC(=O)O)C(=O)N[C@H](C(=O)N[C@H](C(=O)N[C@@H](CCCCN)C(=O)N[C@@H](CC(C)C)C(=O)N[C@@H](Cc1ccc(O)cc1)C(=O)O)C(C)C)[C@H](C)O)[C@H](C)O`: the result in the experiment listed under Homo sapiens [12], in the experiment filed under Homo sapiens [9], in the experiment listed under Homo sapiens [10], in the experiment listed under Homo sapiens [13] and in the experiment listed under Homo sapiens [14] was Active. Further, in the experiment with Plasmodium falciparum [2], the inhibition at 100 µM is 76%. Besides, the Activity in the experiment filed under Homo sapiens [3] is 29%; in the experiment listed under Homo sapiens [5], 120%; in the experiment listed under Homo sapiens [7], 90%; in the experiment filed under Homo sapiens [8], more than 2%. Moreover, the inhibition at 200 µM in the experiment on Plasmodium falciparum [4] is -3%. Moreover, the Kd in experiment [6] is 800 nM.

For `CC[C@H](C)[C@H](NC(=O)[C@H](CCCNC(=N)N)NC(=O)[C@H](CCC(=O)O)NC(=O)[C@H](Cc1cnc[nH]1)NC(=O)[C@@H](NC(=O)[C@H](CC(C)C)NC(=O)[C@H](Cc1c[nH]c2ccccc12)NC(=O)[C@H](CCCCN)NC(=O)[C@H](CCCCN)NC(=O)[C@H](CCCCN)NC(=O)[C@H](CCCCN)NC(=O)[C@H](CC(N)=O)NC(=O)[C@H](C)NC(=O)[C@H](CC(=O)O)NC(=O)[C@@H](N)C(C)C)[C@@H](C)O)C(=O)N[C@@H](CC(C)C)C(=O)N[C@@H](CCCCN)C(=O)N[C@@H](CCCCN)C(=O)N[C@@H](CC(C)C)C(=O)N[C@@H](CCC(N)=O)C(=O)N[C@@H](Cc1ccc(O)cc1)C(=O)O`, the result in the experiment filed under Homo sapiens [9] and in the experiment listed under Homo sapiens [10] was Active. Moreover, in the experiment on Plasmodium falciparum [2], the inhibition at 100 µM worked out at 37%. For the same compound, the Activity in the experiment listed under Homo sapiens [3] is 50%; in the experiment filed under Homo sapiens [5], 25%; in the experiment listed under Homo sapiens [7] it was 87%; in the experiment filed under Homo sapiens [8] it was more than 2%. In addition, in the experiment on Plasmodium falciparum [4], the inhibition at 200 µM is 11%. Further, the Kd in experiment [6] is 510 nM.

Turning to H-FVLAPDEMVYLFYHGNEKKN-OH, in the experiment with Plasmodium falciparum [2], the inhibition at 100 µM is 49%. Further, the Activity in the experiment filed under Homo sapiens [3] was 31%; in the experiment listed under Homo sapiens [5] it was 5%; in the experiment listed under Homo sapiens [7], 116%; in the experiment filed under Homo sapiens [8] it was more than 2%. In addition, the inhibition at 200 µM in the experiment on Plasmodium falciparum [4] is 9%. Further, the Kd in experiment [6] amounted to 850 nM.

Source of the values: ChEMBL document CHEMBL1157764, “Conserved high activity binding peptides are involved in adhesion of two detergent-resistant membrane-associated merozoite proteins to red blood cells during invasion” (J Med Chem, 2010).
